Results reported in ChEMBL document CHEMBL1144986, “Binding of beta-carbolines at 5-HT(2) serotonin receptors” (Bioorg Med Chem Lett, 2003).

Tests used:
[1] = target: T1, 5-hydroxytryptamine receptor 2A (Rattus norvegicus, UniProt P14842); assay: Binding affinity for rat 5-hydroxytryptamine 2A receptor using [3H]DOB
[2] = target: T1, 5-hydroxytryptamine receptor 2A; assay: Binding affinity towards cloned rat 5-hydroxytryptamine 2A receptor by [3H]ketanserin displacement.
[3] = target: T2, 5-hydroxytryptamine receptor 2C (Rattus norvegicus, UniProt P08909); assay: Binding affinity towards cloned rat 5-hydroxytryptamine 2C receptor from fundus tissue by [3H]mesulergine displacement.
T2 sequence (P08909 whole entry): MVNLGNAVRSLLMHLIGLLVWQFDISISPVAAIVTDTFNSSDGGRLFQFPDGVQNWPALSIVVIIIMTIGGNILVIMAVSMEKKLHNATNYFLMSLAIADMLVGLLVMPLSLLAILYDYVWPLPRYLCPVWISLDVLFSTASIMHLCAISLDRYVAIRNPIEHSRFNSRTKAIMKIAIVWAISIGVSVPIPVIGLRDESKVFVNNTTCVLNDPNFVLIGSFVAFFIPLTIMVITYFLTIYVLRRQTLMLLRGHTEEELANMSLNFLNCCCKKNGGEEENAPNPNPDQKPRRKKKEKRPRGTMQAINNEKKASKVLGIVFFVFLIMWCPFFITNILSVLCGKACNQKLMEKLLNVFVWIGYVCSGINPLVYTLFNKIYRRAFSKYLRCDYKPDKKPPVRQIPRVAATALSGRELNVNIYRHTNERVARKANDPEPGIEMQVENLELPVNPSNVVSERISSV

[4] = target: T1, 5-hydroxytryptamine receptor 2A; assay: Binding affinity towards cloned rat Inhibition of binding towards 5-hydroxytryptamine 2A receptor at 100 nM concentration was determined using [3H]ketanserin as radioligand
[5] = target: T1, 5-hydroxytryptamine receptor 2A; assay: Binding affinity towards cloned rat Inhibition of binding towards 5-hydroxytryptamine 2A receptor at 100 nM concentration was determined using [3H]DOB as radioligand
Dopamine receptor = assay: Binding affinity towards Dopamine receptor; format: protein assay
[6] = target: T3, 5-hydroxytryptamine receptor 2C (Homo sapiens, UniProt P28335); assay: Binding affinity towards 5-hydroxytryptamine 2C receptor
T3 sequence (P28335 whole entry): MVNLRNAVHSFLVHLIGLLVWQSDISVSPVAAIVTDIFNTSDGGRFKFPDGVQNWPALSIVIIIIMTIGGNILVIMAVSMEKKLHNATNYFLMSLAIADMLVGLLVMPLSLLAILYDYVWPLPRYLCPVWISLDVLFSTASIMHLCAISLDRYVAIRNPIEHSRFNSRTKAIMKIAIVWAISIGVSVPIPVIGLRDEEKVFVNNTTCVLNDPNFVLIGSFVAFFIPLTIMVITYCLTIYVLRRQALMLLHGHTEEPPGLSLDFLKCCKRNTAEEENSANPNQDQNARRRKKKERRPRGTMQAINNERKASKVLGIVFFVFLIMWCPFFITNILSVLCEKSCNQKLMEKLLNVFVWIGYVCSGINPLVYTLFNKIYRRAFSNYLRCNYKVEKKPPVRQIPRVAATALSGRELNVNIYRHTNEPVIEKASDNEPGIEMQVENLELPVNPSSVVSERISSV

[7] = target: Muscarinic acetylcholine receptor; assay: Binding affinity towards Muscarinic acetylcholine receptor; format: protein assay
[8] = target: Sodium-dependent dopamine transporter (Bos taurus, UniProt P27922); assay: Binding affinity towards DAT (bovine)
Chain of Sodium-dependent dopamine transporter (P27922 whole entry): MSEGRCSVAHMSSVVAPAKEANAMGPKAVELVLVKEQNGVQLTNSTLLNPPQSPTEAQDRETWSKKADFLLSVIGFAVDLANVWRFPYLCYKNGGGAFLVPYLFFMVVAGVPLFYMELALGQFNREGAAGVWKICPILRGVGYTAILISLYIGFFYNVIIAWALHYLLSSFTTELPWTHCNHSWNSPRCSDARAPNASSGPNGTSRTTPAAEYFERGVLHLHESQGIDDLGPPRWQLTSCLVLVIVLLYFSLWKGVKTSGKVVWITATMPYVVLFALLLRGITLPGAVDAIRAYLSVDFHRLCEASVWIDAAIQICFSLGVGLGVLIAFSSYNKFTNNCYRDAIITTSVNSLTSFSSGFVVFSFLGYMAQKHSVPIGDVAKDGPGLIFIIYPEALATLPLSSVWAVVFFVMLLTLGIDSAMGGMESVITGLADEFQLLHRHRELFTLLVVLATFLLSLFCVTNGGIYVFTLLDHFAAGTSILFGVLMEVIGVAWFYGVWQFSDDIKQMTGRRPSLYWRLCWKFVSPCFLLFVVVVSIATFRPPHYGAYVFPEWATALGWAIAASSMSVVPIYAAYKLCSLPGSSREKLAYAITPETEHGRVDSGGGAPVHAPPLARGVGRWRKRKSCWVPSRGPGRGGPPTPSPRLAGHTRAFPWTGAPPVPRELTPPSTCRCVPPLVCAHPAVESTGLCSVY

[9] = target: 5-hydroxytryptamine receptor 6 (Homo sapiens, UniProt P50406); assay: Binding affinity towards human 5-hydroxytryptamine 6 receptor
Chain of 5-hydroxytryptamine receptor 6 (P50406 whole entry): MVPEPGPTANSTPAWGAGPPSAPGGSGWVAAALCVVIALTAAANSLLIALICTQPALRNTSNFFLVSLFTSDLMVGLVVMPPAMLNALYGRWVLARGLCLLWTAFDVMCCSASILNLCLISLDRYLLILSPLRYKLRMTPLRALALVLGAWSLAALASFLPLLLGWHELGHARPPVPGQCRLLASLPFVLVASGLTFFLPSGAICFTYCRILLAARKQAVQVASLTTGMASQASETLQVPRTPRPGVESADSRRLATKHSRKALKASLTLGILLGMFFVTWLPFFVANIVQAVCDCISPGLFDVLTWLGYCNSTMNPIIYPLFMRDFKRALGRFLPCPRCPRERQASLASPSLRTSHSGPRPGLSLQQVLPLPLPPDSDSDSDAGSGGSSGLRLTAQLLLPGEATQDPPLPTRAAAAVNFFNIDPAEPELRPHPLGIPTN

[10] = target: 5-hydroxytryptamine receptor 1B (Homo sapiens, UniProt P28222); assay: Binding affinity towards 5-hydroxytryptamine 1B receptor
Chain of 5-hydroxytryptamine receptor 1B (P28222 whole entry): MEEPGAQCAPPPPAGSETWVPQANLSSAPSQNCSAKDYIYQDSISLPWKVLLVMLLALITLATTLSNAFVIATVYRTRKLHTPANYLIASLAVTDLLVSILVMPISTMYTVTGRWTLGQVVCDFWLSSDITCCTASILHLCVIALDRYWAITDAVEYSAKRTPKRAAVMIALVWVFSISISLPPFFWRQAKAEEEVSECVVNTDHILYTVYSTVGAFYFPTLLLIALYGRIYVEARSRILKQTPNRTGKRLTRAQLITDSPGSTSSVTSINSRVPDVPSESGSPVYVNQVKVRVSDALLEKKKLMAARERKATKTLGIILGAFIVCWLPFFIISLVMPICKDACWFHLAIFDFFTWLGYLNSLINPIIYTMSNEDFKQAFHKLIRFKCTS

[11] = target: 5-hydroxytryptamine receptor 5A (Homo sapiens, UniProt P47898); assay: Binding affinity towards 5-HT5A receptor
Chain of 5-hydroxytryptamine receptor 5A (P47898 whole entry): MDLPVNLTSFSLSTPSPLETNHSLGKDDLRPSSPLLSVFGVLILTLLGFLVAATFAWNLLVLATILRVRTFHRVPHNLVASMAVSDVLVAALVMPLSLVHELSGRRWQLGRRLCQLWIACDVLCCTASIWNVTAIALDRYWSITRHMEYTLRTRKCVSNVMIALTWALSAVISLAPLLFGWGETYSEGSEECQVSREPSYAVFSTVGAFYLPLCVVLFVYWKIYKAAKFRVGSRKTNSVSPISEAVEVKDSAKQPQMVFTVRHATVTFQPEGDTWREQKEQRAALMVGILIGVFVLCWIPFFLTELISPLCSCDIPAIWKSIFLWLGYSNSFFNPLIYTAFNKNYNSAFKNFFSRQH

[12] = target: Sodium-dependent noradrenaline transporter (Homo sapiens, UniProt P23975); assay: Binding affinity towards NET
Chain of Sodium-dependent noradrenaline transporter (P23975 whole entry): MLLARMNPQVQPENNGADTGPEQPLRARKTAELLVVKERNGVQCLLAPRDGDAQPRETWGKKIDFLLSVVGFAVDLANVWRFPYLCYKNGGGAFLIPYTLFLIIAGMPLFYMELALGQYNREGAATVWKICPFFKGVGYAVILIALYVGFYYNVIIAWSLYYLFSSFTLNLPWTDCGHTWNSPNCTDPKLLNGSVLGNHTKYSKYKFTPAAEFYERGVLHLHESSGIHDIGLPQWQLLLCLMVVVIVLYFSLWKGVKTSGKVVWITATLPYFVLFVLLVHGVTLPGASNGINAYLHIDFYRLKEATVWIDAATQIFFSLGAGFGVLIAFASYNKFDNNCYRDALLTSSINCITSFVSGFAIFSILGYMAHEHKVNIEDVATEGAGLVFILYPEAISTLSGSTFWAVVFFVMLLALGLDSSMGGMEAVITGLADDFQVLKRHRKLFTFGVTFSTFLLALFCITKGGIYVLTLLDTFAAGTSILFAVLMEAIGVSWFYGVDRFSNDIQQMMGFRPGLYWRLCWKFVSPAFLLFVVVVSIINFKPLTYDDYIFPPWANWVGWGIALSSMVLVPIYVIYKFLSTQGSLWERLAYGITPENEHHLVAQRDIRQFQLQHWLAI

[13] = target: GABA-A receptor; anion channel; assay: Binding affinity towards GABA-A benzodiazepine receptor; format: protein-complex assay, Rattus norvegicus
[14] = target: T4, 5-hydroxytryptamine receptor 1A (Homo sapiens, UniProt P08908); assay: Binding affinity towards 5-hydroxytryptamine 1A receptor
T4 sequence (P08908 whole entry): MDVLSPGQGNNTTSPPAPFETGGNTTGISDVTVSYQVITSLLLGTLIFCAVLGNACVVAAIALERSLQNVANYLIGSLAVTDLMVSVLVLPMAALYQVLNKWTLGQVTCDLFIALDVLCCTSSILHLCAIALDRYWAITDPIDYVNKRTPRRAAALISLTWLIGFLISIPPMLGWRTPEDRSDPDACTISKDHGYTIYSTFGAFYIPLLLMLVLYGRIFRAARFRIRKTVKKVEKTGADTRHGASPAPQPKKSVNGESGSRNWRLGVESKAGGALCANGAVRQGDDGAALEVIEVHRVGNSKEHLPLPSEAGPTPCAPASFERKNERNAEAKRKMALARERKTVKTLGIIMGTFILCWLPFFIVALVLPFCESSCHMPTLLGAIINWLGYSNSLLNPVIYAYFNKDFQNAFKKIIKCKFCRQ

[15] = target: Sodium-dependent serotonin transporter (Homo sapiens, UniProt P31645); assay: Binding affinity towards Serotonin transporter
Chain of Sodium-dependent serotonin transporter (P31645 whole entry): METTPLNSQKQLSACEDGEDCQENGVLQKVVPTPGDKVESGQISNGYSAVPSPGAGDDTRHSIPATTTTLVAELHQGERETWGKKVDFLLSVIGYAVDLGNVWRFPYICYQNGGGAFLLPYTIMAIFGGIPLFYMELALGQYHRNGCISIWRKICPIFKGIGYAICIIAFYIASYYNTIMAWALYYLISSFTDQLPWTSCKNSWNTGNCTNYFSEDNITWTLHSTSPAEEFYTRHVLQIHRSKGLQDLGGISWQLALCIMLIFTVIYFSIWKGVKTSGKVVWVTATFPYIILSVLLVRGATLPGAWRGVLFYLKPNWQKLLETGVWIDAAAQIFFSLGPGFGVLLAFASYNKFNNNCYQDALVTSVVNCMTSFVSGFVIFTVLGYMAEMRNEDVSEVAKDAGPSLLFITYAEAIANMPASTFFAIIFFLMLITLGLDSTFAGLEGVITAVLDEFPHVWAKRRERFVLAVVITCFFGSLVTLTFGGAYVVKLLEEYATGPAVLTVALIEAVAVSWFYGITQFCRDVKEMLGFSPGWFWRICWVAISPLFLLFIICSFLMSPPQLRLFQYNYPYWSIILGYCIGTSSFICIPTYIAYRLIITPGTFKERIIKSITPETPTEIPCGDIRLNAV

[16] = target: Serotonin 3 (5-HT3) receptor; assay: Binding affinity towards 5-HT3 receptor; format: protein-complex assay
[17] = target: 5-hydroxytryptamine receptor 7 (Homo sapiens, UniProt P34969); assay: Binding affinity towards 5-hydroxytryptamine 7 receptor
Chain of 5-hydroxytryptamine receptor 7 (P34969 whole entry): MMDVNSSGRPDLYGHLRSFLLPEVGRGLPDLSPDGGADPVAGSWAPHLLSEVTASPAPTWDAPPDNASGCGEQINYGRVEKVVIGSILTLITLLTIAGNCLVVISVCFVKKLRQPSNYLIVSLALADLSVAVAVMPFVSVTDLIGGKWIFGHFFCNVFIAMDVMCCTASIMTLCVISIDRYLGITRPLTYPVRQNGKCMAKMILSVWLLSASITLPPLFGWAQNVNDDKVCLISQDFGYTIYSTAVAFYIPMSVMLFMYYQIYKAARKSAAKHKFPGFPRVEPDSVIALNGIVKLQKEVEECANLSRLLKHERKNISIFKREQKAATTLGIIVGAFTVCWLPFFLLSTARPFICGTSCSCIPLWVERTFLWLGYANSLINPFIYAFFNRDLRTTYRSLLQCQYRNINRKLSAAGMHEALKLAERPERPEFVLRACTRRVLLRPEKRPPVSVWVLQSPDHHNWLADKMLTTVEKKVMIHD

[18] = target: 5-hydroxytryptamine receptor 1D (Homo sapiens, UniProt P28221); assay: Binding affinity towards 5-hydroxytryptamine 1D receptor
Chain of 5-hydroxytryptamine receptor 1D (P28221 whole entry): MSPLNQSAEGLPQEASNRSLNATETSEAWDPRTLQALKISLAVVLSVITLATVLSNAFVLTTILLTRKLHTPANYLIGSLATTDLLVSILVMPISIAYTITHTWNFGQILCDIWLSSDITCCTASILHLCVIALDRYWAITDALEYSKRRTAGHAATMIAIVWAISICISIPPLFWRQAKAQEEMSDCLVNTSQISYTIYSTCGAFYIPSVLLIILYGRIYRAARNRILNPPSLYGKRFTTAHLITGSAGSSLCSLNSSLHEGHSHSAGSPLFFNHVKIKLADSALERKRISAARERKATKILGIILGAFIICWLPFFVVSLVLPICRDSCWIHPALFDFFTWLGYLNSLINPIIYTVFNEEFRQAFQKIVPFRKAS

[19] = target: T1, 5-hydroxytryptamine receptor 2A; assay: Binding affinity towards 5-hydroxytryptamine 2A receptor
[20] = target: T1, 5-hydroxytryptamine receptor 2A; assay: Binding affinity towards cloned rat 5-hydroxytryptamine 2A receptor from fundus tissue was determined using [3H]mesulergine as radioligand
[21] = target: Alpha-2C adrenergic receptor (Homo sapiens, UniProt P18825); assay: Binding affinity towards Alpha-2C adrenergic receptor
[22] = target: Muscarinic acetylcholine receptor; assay: Binding affinity towards Muscarinic receptor; format: protein assay
[23] = target: Alpha-2A adrenergic receptor (Homo sapiens, UniProt P08913); assay: Binding affinity towards alpha-2A-Adrenergic receptor
[24] = target: Alpha-1B adrenergic receptor (Homo sapiens, UniProt P35368); assay: Binding affinity towards Alpha-1B adrenergic receptor
[25] = target: Beta-2 adrenergic receptor (Homo sapiens, UniProt P07550); assay: Binding affinity towards Beta-2A adrenergic receptor
[26] = target: Beta-1 adrenergic receptor (Homo sapiens, UniProt P08588); assay: Binding affinity towards Beta-1A adrenergic receptor
[27] = target: Alpha-1A adrenergic receptor (Homo sapiens, UniProt P35348); assay: Binding affinity towards Alpha-1A adrenergic receptor
[28] = target: Alpha-2B adrenergic receptor (Homo sapiens, UniProt P18089); assay: Binding affinity towards Alpha-2B adrenergic receptor
Chain of Alpha-2B adrenergic receptor (P18089 whole entry): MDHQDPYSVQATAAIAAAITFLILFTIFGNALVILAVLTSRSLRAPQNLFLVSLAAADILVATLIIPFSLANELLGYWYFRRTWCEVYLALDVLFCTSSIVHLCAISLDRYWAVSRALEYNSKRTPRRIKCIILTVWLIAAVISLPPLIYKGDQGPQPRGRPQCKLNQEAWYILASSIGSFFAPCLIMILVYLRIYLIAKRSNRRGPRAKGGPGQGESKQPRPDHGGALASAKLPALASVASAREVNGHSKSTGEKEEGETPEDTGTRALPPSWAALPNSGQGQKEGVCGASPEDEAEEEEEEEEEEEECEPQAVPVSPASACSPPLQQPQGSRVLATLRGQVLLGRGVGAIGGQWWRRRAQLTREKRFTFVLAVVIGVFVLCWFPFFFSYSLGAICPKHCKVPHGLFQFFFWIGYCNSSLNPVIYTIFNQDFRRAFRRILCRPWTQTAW

T1 sequence (P14842 whole entry): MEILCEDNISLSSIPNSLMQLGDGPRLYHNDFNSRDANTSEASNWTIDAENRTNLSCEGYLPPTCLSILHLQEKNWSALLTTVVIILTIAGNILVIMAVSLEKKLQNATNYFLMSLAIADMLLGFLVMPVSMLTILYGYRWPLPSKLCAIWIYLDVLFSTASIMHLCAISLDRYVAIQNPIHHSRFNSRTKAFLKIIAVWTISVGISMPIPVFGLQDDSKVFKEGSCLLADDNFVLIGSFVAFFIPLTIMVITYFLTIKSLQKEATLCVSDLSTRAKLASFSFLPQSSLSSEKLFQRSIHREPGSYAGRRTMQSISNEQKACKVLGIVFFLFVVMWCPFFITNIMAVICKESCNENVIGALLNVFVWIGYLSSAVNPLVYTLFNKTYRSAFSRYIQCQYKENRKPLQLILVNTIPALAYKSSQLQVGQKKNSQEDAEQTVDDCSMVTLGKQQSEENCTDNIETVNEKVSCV

COc1ccc2[nH]c3c(c2c1)CCNC3
Ki [1]: 1400 nM
Ki [2]: 4780 nM
Ki [3]: 2190 nM

C1=NCCc2c1[nH]c1ccccc21
Ki [4]: 2560 nM
Ki [5]: 2150 nM
Ki [3]: 1100 nM

Brc1cccc2[nH]c3c(c12)CCN=C3
Ki [2]: 390 nM
Ki [3]: 140 nM

COc1cccc2c3c([nH]c12)C=NCC3
Ki [1]: 2550 nM
Ki [2]: 3240 nM
Ki [3]: 1350 nM

COc1cccc2c3c([nH]c12)CNCC3
Ki [1]: 400 nM
Ki [2]: 640 nM
Ki [3]: 1270 nM

CC1=NCCc2c1[nH]c1ccccc21
Ki (Dopamine receptor): > 10000 nM
Ki [6]: 1860 nM
Ki [7]: > 10000 nM
Ki [8]: > 10000 nM
Ki [9]: 1450 nM
Ki [10]: > 10000 nM
Ki [11]: 845 nM
Ki [12]: > 10000 nM
Ki [13]: > 10000 nM
Ki [14]: > 1670 nM
Ki [15]: > 10000 nM
Ki [16]: > 10000 nM
Ki [17]: 280 nM
Ki [18]: > 10000 nM
Ki [19]: 1150 nM

COc1ccc2[nH]c3c(c2c1)CCN=C3C
Ki (Dopamine receptor): > 10000 nM
Ki [6]: 924 nM
Ki [7]: > 10000 nM
Ki [8]: > 10000 nM
Ki [9]: 1930 nM
Ki [10]: > 10000 nM
Ki [11]: > 10000 nM
Ki [12]: > 4100 nM
Ki [13]: > 10000 nM
Ki [14]: > 10000 nM
Ki [15]: > 10000 nM
Ki [16]: > 10000 nM
Ki [17]: 2960 nM
Ki [18]: > 10000 nM
Ki [19]: 5600 nM

CC(C)Oc1cccc2[nH]c3c(c12)CCN=C3
Ki [20]: 1410 nM

CC1=NCCc2c1[nH]c1cccc(OC(C)C)c21
Ki [2]: 470 nM
Ki [3]: 26 nM

C1=NCCc2c1[nH]c1cccc(OCc3ccccc3)c21
Ki [2]: 124 nM
Ki [3]: 200 nM

Brc1ccc2c3c([nH]c2c1)C=NCC3
Ki [2]: 1330 nM
Ki [3]: 2100 nM

Brc1ccc2c3c([nH]c2c1)CNCC3
Ki [2]: 240 nM
Ki [3]: 250 nM

COc1ccc2c3c([nH]c2c1)CNCC3
Ki [1]: 2200 nM
Ki [6]: > 10000 nM
Ki [21]: 1740 nM
Ki [22]: > 10000 nM
Ki [23]: 1370 nM
Ki [24]: > 10000 nM
Ki [9]: > 10000 nM
Ki [25]: > 10000 nM
Ki [10]: > 10000 nM
Ki [26]: > 10000 nM
Ki [11]: > 10000 nM
Ki [2]: 4620 nM
Ki [3]: > 10000 nM
Ki [27]: > 10000 nM
Ki [28]: 140 nM
Ki [14]: > 10000 nM
Ki [15]: > 10000 nM
Ki [16]: > 10000 nM
Ki [17]: 1400 nM
Ki [18]: > 10000 nM
Ki [19]: 4620 nM

Brc1cccc2[nH]c3c(c12)CCNC3
Ki [1]: 80 nM
Ki [2]: 180 nM
Ki [3]: 130 nM

Brc1ccc2[nH]c3c(c2c1)CCNC3
Ki [2]: 500 nM
Ki [3]: 210 nM

COc1cccc2[nH]c3c(c12)CCNC3
Ki [1]: 75 nM
Ki [2]: 130 nM
Ki [3]: 140 nM

COc1cccc2[nH]c3c(c12)CCN=C3
Ki [1]: 500 nM
Ki [2]: 470 nM
Ki [3]: 75 nM

Brc1ccc2[nH]c3c(c2c1)CCN=C3
Ki [2]: 1720 nM
Ki [3]: 1200 nM

COc1ccc2[nH]c3c(c2c1)CCN=C3
Ki [2]: 2370 nM
Ki [3]: 1170 nM

Brc1cccc2c3c([nH]c12)C=NCC3
Ki [1]: 115 nM
Ki [2]: 110 nM
Ki [3]: 140 nM

Brc1cccc2c3c([nH]c12)CNCC3
Ki [1]: 21 nM
Ki [2]: 22 nM
Ki [3]: 48 nM

COc1ccc2c3c([nH]c2c1)C=NCC3 [CGS-19281A]
Ki [1]: > 10000 nM
Ki [2]: > 10000 nM
Ki [3]: > 10000 nM

COc1ccc2c(c1)[nH]c1c(C)nccc12 [HARMINE]
Ki (Dopamine receptor): > 10000 nM
Ki [6]: 9340 nM
Ki [21]: 810 nM
Ki [23]: 2540 nM
Ki [7]: > 10000 nM
Ki [8]: > 10000 nM
Ki [24]: > 10000 nM
Ki [9]: 1480 nM
Ki [25]: > 10000 nM
Ki [10]: > 10000 nM
Ki [26]: > 10000 nM
Ki [11]: > 10000 nM
Ki [27]: > 10000 nM
Ki [12]: 3260 nM
Ki [28]: 1130 nM
Ki [13]: > 10000 nM
Ki [14]: > 10000 nM
Ki [15]: > 10000 nM
Ki [16]: > 10000 nM
Ki [17]: 5500 nM
Ki [18]: > 10000 nM
Ki [19]: 7790 nM

c1ccc2c3c([nH]c2c1)CNCC3 [TRYPTOLINE]
Ki [1]: 3000 nM
Ki [2]: 3800 nM
Ki [3]: > 10000 nM
